In this assay the test system is IL-1β release upon NLRP3 activation in peripheral blood mononuclear cells (PBMC). The assay can be described thus: PBMC IC50 determination assay (IL-1β release, Protocol A ELISA / Protocol B HTRF). The assay is classed as cell-based. As to conditions: Homo sapiens. Here is the method: The compounds of the present disclosure were tested for their inhibitory activity against IL-1β release upon NLRP3 activation in peripheral blood mononuclear cells (PBMC).
Isolated cells were seeded into the wells of a 96-well plate and incubated for 3 h with lipopolysaccharide (LPS). Following medium exchange, the compounds of the present disclosure were added (a single compound per well) and the cells were incubated for 30 min. Next, the cells were stimulated either with ATP (5 mM) or nigericin (10 μM) for 1 h and the cell culture media from the wells were collected for further analysis.
The release of IL1-β into the media was determined by a quantitative detection of IL-1β in the media using an IL-1β enzyme-linked immunosorbent assay (ELISA) Ready-SET-Go!, eBioscience cat. […] Subsequently, plates were blocked with blocking buffer for 1 h at room temperature (rt) and after washing with a buffer (PBS with 0.05% Tween-20) incubated with protein standard and culture media. […] Plates were washed and incubated with HRP-streptavidin for 30 min at rt and washed again. The signal was developed after addition of 3,3′,5,5′-tetramethylbenzidine-peroxidase (TMB) until colour appeared and the reaction was stopped by 2 M H2SO4. A microplate spectrophotometer (BioTek) was used to detect signals with 450 nm. The detection range of IL-1β ELISA was 2-150 ng/ml.
Isolated cells were seeded into the wells (280,000 cells/well) of a 96-well plate and incubated for 3 h with lipopolysaccharide (LPS, 1 μg/ml diluted 1000× from a 1 mg/ml stock solution). The compounds of the present disclosure were added (a single compound per well) and the cells were incubated for 30 min. Next, the cells were stimulated with ATP (5 mM final concentration diluted 20× from a 100 mM stock solution) for 1 h and the cell culture media from the wells were collected for further analysis.
The release of IL-1β into the media was determined by quantitative detection of IL-1β in the media using HTRF®, CisBio cat. No. 62HIL1BPEH. Briefly, cell culture supernatant were dispensed directly into the assay plate containing antibodies labelled with the HTRF® donor and acceptor. A microplate spectrophotometer (BMG) was used to detect signals at 655 nm and 620 nm. The detection range of IL-1β HTRF® was 39-6500 pg/ml.
Background: ELISA stands for enzyme-linked immunosorbent assay.

[1] abbreviates: PBMC primed with LPS 3 h, compound 30 min, stimulated with ATP (5 mM) or nigericin (10 μM) 1 h, IL-1β in media, read-out: Average PBMC IC50.
Where [2] appears, read: PBMC, read-out: Average PBMC IC50 (μM).

The record followed here is US12459925B2, “Sulphonyl urea derivatives as NLRP3 inflammasome modulators” (priority 2017, dated 2025).

Where two headings read alike, the source gives them in different places.

A word on the IC50: it is the concentration needed to halve the response being measured. On to `Cn1cc(N(C2CCOCC2)S(=O)(=O)NC(=O)Nc2c3c(cc4c2CCC4)CCC3)cn1` [Compound 1], for which, under setting [1], the IC50 is less than 1 µM.

As for `CN1CCC(N(c2cnn(C)c2)S(=O)(=O)NC(=O)Nc2c3c(cc4c2CCC4)CCC3)CC1` [Compound 2], the IC50 under setting [1] is less than 1 µM.

In the case of `CN1CCC(CN(c2cnn(C)c2)S(=O)(=O)NC(=O)Nc2c3c(cc4c2CCC4)CCC3)CC1` [Compound 3], under setting [1], the IC50 lay in the range of 1 to 3 µM.

With `CC(C)n1cc(N(C2CCOCC2)S(=O)(=O)NC(=O)Nc2c3c(cc4c2CCC4)CCC3)cn1` [Compound 4], the IC50 under setting [1] is less than 1 µM.

On to `CC(C)n1cc(N(C2CCN(C)CC2)S(=O)(=O)NC(=O)Nc2c3c(cc4c2CCC4)CCC3)cn1` [Compound 5], for which, under setting [1], the IC50 is less than 1 µM.

In the case of `CCn1cc(N(C2CCOCC2)S(=O)(=O)NC(=O)Nc2c3c(cc4c2CCC4)CCC3)cn1` [Compound 6], under setting [1], the IC50 is less than 1 µM.

For the compound `CCn1cc(N(C2CCN(C)CC2)S(=O)(=O)NC(=O)Nc2c3c(cc4c2CCC4)CCC3)cn1` [Compound 7], under setting [1], the IC50 is less than 1 µM.

With `Cn1cc(N(C2CCOC2)S(=O)(=O)NC(=O)Nc2c3c(cc4c2CCC4)CCC3)cn1` (stereo not drawn) [Compound 8], the IC50 under setting [1] is less than 1 µM.

With `Cn1ccc(N(C2CCOCC2)S(=O)(=O)NC(=O)Nc2c3c(cc4c2CCC4)CCC3)n1` [Compound 9], the concentration for half-maximal inhibition (IC50) under setting [1] was less than 1 µM.

For the compound `Cc1c(N(C2CCOCC2)S(=O)(=O)NC(=O)Nc2c3c(cc4c2CCC4)CCC3)cnn1C` [Compound 10], under setting [1], the IC50 is less than 1 µM.

Turning to `Cc1nn(C)c(C)c1N(C1CCOCC1)S(=O)(=O)NC(=O)Nc1c2c(cc3c1CCC3)CCC2` [Compound 11], the IC50 under setting [1] is less than 1 µM.

For the compound `Cc1cc(N(C2CCOCC2)S(=O)(=O)NC(=O)Nc2c3c(cc4c2CCC4)CCC3)no1` [Compound 12], the IC50 under setting [1] was 3 to 10 µM.

Consider `O=C(Nc1c2c(cc3c1CCC3)CCC2)NS(=O)(=O)N(c1cnoc1)C1CCOCC1` [Compound 13], for which the concentration for half-maximal inhibition (IC50) under setting [1] was less than 1 µM.

For the compound `Cc1c(N(C2CCN(C)CC2)S(=O)(=O)NC(=O)Nc2c3c(cc4c2CCC4)CCC3)cnn1C` [Compound 14], the IC50 under setting [1] is less than 1 µM.

As for `Cc1nn(C)c(C)c1N(C1CCN(C)CC1)S(=O)(=O)NC(=O)Nc1c2c(cc3c1CCC3)CCC2` [Compound 15], the IC50 under setting [1] was in the range of 1 to 3 µM.

For `Cn1cc(N(CC2COC2)S(=O)(=O)NC(=O)Nc2c3c(cc4c2CCC4)CCC3)cn1` [Compound 16], the IC50 under setting [1] is less than 1 µM.

`O=C(Nc1c2c(cc3c1CCC3)CCC2)NS(=O)(=O)N(c1cncnc1)C1CCOCC1` [Compound 17]: the IC50 under setting [1] is less than 1 µM.

Take `Cc1cc(N(C2CCOCC2)S(=O)(=O)NC(=O)Nc2c3c(cc4c2CCC4)CCC3)on1` [Compound 18]: the IC50 under setting [1] was less than 1 µM.

As for `Cn1cnc(N(C2CCOCC2)S(=O)(=O)NC(=O)Nc2c3c(cc4c2CCC4)CCC3)n1` [Compound 19], under setting [1], the IC50 fell in the range of 3 to 10 µM.

Take `CN1CCC(N(c2ccn(C)n2)S(=O)(=O)NC(=O)Nc2c3c(cc4c2CCC4)CCC3)CC1` [Compound 20]: under setting [1], the IC50 is less than 1 µM.

As to `Cn1cnc(N(C2CCOCC2)S(=O)(=O)NC(=O)Nc2c3c(cc4c2CCC4)CCC3)c1` [Compound 21], the IC50 under setting [1] was 3 to 10 µM.

In the case of `Cn1cc(N(C2CCCOC2)S(=O)(=O)NC(=O)Nc2c3c(cc4c2CCC4)CCC3)cn1` (stereo not drawn) [Compound 22], under setting [1], the IC50 is less than 1 µM.

Consider `CN1CCCC(N(c2cnn(C)c2)S(=O)(=O)NC(=O)Nc2c3c(cc4c2CCC4)CCC3)C1` (stereo not drawn) [Compound 23], for which the IC50 under setting [1] is less than 1 µM.

Regarding `CN1CCC(N(c2cnn(C)c2)S(=O)(=O)NC(=O)Nc2c3c(cc4c2CCC4)CCC3)C1` (stereo not drawn) [Compound 24], the IC50 under setting [1] is less than 1 µM.

Consider `O=C(Nc1c2c(cc3c1CCC3)CCC2)NS(=O)(=O)N(c1cnn(C(F)F)c1)C1CCOCC1` [Compound 25], for which the IC50 under setting [1] was less than 1 µM.

Regarding `O=C(Nc1c2c(cc3c1CCC3)CCC2)NS(=O)(=O)N(c1cnn(CC(F)(F)F)c1)C1CCOCC1` [Compound 26], the IC50 under setting [1] is less than 1 µM.

Turning to `COCn1cc(N(C2CCOCC2)S(=O)(=O)NC(=O)Nc2c3c(cc4c2CCC4)CCC3)cn1` [Compound 27], the IC50 under setting [1] was less than 1 µM.

Turning to `COCn1cc(N(C2CCN(C)CC2)S(=O)(=O)NC(=O)Nc2c3c(cc4c2CCC4)CCC3)cn1` [Compound 28], under setting [1], the IC50 was less than 1 µM.

On to `COCCn1cc(N(C2CCOCC2)S(=O)(=O)NC(=O)Nc2c3c(cc4c2CCC4)CCC3)cn1` [Compound 29], for which the IC50 under setting [1] was less than 1 µM.

Take `N#CCn1cc(N(C2CCOCC2)S(=O)(=O)NC(=O)Nc2c3c(cc4c2CCC4)CCC3)cn1` [Compound 30]: the 50% inhibitory concentration (IC50) under setting [1] was less than 1 µM.

With `CN1CCC(N(c2cnn(CC#N)c2)S(=O)(=O)NC(=O)Nc2c3c(cc4c2CCC4)CCC3)CC1` [Compound 31], the IC50 under setting [1] is less than 1 µM.

As to `CCN1CCC(N(c2cnn(C)c2)S(=O)(=O)NC(=O)Nc2c3c(cc4c2CCC4)CCC3)CC1` [Compound 32], the IC50 under setting [1] was less than 1 µM.

Regarding `CC(C)N1CCC(N(c2cnn(C)c2)S(=O)(=O)NC(=O)Nc2c3c(cc4c2CCC4)CCC3)CC1` [Compound 33], the IC50 under setting [1] was 1 to 3 µM.

As to `CN1CCC(N(c2cnn(C(F)F)c2)S(=O)(=O)NC(=O)Nc2c3c(cc4c2CCC4)CCC3)CC1` [Compound 34], under setting [1], the IC50 was less than 1 µM.

For the compound `O=C(Nc1c2c(cc3c1CCC3)CCC2)NS(=O)(=O)N(c1cnn(CC(F)F)c1)C1CCOCC1` [Compound 35], under setting [1], the IC50 is less than 1 µM.

As for `CN1CCC(N(c2cnn(CC(F)F)c2)S(=O)(=O)NC(=O)Nc2c3c(cc4c2CCC4)CCC3)CC1` [Compound 36], the concentration for half-maximal inhibition (IC50) under setting [1] was less than 1 µM.

For `CN1CCC(N(c2cnn(CC(F)(F)F)c2)S(=O)(=O)NC(=O)Nc2c3c(cc4c2CCC4)CCC3)CC1` [Compound 37], the IC50 under setting [1] is less than 1 µM.

With `COCCn1cc(N(C2CCN(C)CC2)S(=O)(=O)NC(=O)Nc2c3c(cc4c2CCC4)CCC3)cn1` [Compound 38], the IC50 under setting [1] was less than 1 µM.

For `CN1CCC(N(c2cnn(C3CC3)c2)S(=O)(=O)NC(=O)Nc2c3c(cc4c2CCC4)CCC3)CC1` [Compound 39], the IC50 under setting [1] was less than 1 µM.

As to `CN1CCC(N(c2cn[nH]c2)S(=O)(=O)NC(=O)Nc2c3c(cc4c2CCC4)CCC3)CC1` [Compound 40], the IC50 under setting [2] was 1 to 3 µM.

As for `O=C(Nc1c2c(cc3c1CCC3)CCC2)NS(=O)(=O)N(c1cnn(C2COC2)c1)C1CCOCC1` [Compound 41], the IC50 under setting [1] is less than 1 µM.

On to `CN1CCC(N(c2cnn(C3COC3)c2)S(=O)(=O)NC(=O)Nc2c3c(cc4c2CCC4)CCC3)CC1` [Compound 42], for which the IC50 under setting [1] was less than 1 µM.

Turning to `CN(C)CCn1cc(N(C2CCOCC2)S(=O)(=O)NC(=O)Nc2c3c(cc4c2CCC4)CCC3)cn1` [Compound 43], the half-inhibitory concentration (IC50) under setting [1] was less than 1 µM.

Take `CN1CCC(N(c2cnn(C3CCC3)c2)S(=O)(=O)NC(=O)Nc2c3c(cc4c2CCC4)CCC3)CC1` [Compound 44]: the IC50 under setting [1] is less than 1 µM.

As to `Cn1cc(N(C2CCN(CC(F)F)CC2)S(=O)(=O)NC(=O)Nc2c3c(cc4c2CCC4)CCC3)cn1` [Compound 45], the IC50 under setting [2] lay in the range of 1 to 3 µM.

Turning to `Cn1cc(N(CCN2CCOCC2)S(=O)(=O)NC(=O)Nc2c3c(cc4c2CCC4)CCC3)cn1` [Compound 46], under setting [1], the IC50 was less than 1 µM.

Consider `CN1CCC(N(c2cnn(C)c2)S(=O)(=O)NC(=O)Nc2c3c(cc4c2CCC4)CCC3)CC1=O` (stereo not drawn) [Compound 47], for which the 50% inhibitory concentration (IC50) under setting [1] is 1 to 3 µM.

With `O=C(Nc1c2c(cc3c1CCC3)CCC2)NS(=O)(=O)N(c1cn[nH]c1)C1CCOCC1` [Compound 48], the IC50 under setting [2] is less than 1 µM.

For `CC(C)c1cc(NC(=O)NS(=O)(=O)N(c2cnn(C)c2)C2CCN(C)CC2)cc(C(C)C)c1` [Compound 49], under setting [1], the IC50 was less than 1 µM.

As to `CCN1CCC(N(c2cnn(C)c2)S(=O)(=O)NC(=O)Nc2c3c(cc4c2CCC4)CCC3)C1` (stereo not drawn) [Compound 50], under setting [1], the IC50 is less than 1 µM.

On to `CC(C)N1CCC(N(c2cnn(C)c2)S(=O)(=O)NC(=O)Nc2c3c(cc4c2CCC4)CCC3)C1` (stereo not drawn) [Compound 51], for which the half-maximal inhibitory concentration (IC50) under setting [1] was less than 1 µM.

`CC(C)N1CCCC(N(c2cnn(C)c2)S(=O)(=O)NC(=O)Nc2c3c(cc4c2CCC4)CCC3)C1` (stereo not drawn) [Compound 52]: under setting [1], the IC50 was less than 1 µM.

With `CCc1cc(CC)cc(NC(=O)NS(=O)(=O)N(c2cnn(C)c2)C2CCN(C)CC2)c1` [Compound 53], under setting [1], the IC50 is less than 1 µM.

For `Cn1cc(N(C2CN3CCC2CC3)S(=O)(=O)NC(=O)Nc2c3c(cc4c2CCC4)CCC3)cn1` (stereo not drawn) [Compound 54], the concentration for half-maximal inhibition (IC50) under setting [2] was less than 1 µM.

`CC(C)n1cc(N(C2CCCN(C)C2)S(=O)(=O)NC(=O)Nc2c3c(cc4c2CCC4)CCC3)cn1` (stereo not drawn) [Compound 55]: the IC50 under setting [1] is less than 1 µM.

As to `CC(C)n1cc(N(C2CCN(C)C2)S(=O)(=O)NC(=O)Nc2c3c(cc4c2CCC4)CCC3)cn1` (stereo not drawn) [Compound 56], under setting [1], the IC50 is less than 1 µM.

Regarding `CN1CCC(CN(c2cnn(C)c2)S(=O)(=O)NC(=O)Nc2c3c(cc4c2CCC4)CCC3)C1` (stereo not drawn) [Compound 57], the IC50 under setting [1] is less than 1 µM.
